Measurements: PubChem BioAssay (NCI)
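Five compound concentrations were applied to cells in 96-well plates for 48 hours; endpoints were derived by simple linear interpolation of the resulting dose-response curve. TGI: concentration producing complete growth inhibition.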

How the values were obtained:
Test in all cases: NCI-60 cell line screen, 48 h
UACC-257 melanoma = system: UACC-257 melanoma
SF-295 CNS = system: SF-295 CNS
NCI-H23 lung = system: NCI-H23 lung
CAKI-1 renal = system: CAKI-1 renal
K-562 leukemia = system: K-562 leukemia
SN12C renal = system: SN12C renal
PC-3 prostate = system: PC-3 prostate
MDA-N = system: MDA-N
OVCAR-3 ovarian = system: OVCAR-3 ovarian
HCT-116 colon = system: HCT-116 colon
EKVX NSCLC = system: EKVX NSCLC
MCF7 breast = system: MCF7 breast
HOP-92 NSCLC = system: HOP-92 NSCLC
SK-MEL-2 melanoma = system: SK-MEL-2 melanoma
A498 renal = system: A498 renal
HOP-62 NSCLC = system: HOP-62 NSCLC
OVCAR-5 ovarian = system: OVCAR-5 ovarian
SW-620 colon = system: SW-620 colon
MDA-MB-435 = system: MDA-MB-435
RXF 393 renal = system: RXF 393 renal
786-0 renal = system: 786-0 renal
M14 melanoma = system: M14 melanoma
COLO 205 colon = system: COLO 205 colon
SK-OV-3 ovarian = system: SK-OV-3 ovarian
SNB-19 CNS = system: SNB-19 CNS
IGROV1 ovarian = system: IGROV1 ovarian
HT29 colon = system: HT29 colon
MALME-3M melanoma = system: MALME-3M melanoma
NCI-H522 lung = system: NCI-H522 lung
UACC-62 melanoma = system: UACC-62 melanoma
KM12 colon = system: KM12 colon
SF-268 CNS = system: SF-268 CNS
SK-MEL-5 melanoma = system: SK-MEL-5 melanoma
ACHN renal = system: ACHN renal
MDA-MB-231 breast = system: MDA-MB-231 breast
MOLT-4 leukemia = system: MOLT-4 leukemia
A549 NSCLC = system: A549 NSCLC
TK-10 renal = system: TK-10 renal
BT-549 breast = system: BT-549 breast
HL-60(TB) leukemia = system: HL-60(TB) leukemia
OVCAR-8 ovarian = system: OVCAR-8 ovarian
U251 CNS = system: U251 CNS
NCI/ADR-RES ovarian = system: NCI/ADR-RES ovarian
SK-MEL-28 melanoma = system: SK-MEL-28 melanoma
NCI-H460 lung = system: NCI-H460 lung
HS 578T breast = system: HS 578T breast
UO-31 renal = system: UO-31 renal
CCRF-CEM leukemia = system: CCRF-CEM leukemia
NCI-H226 lung = system: NCI-H226 lung
OVCAR-4 ovarian = system: OVCAR-4 ovarian
T-47D breast = system: T-47D breast
HCT-15 colon = system: HCT-15 colon
LOX IMVI melanoma = system: LOX IMVI melanoma
SNB-75 CNS = system: SNB-75 CNS
DU-145 prostate = system: DU-145 prostate
SF-539 CNS = system: SF-539 CNS
HCC-2998 colon = system: HCC-2998 colon

`NC12CC3C4CC5(N)CC3C(C1)C(C5)C4C2` showed a TGI (UACC-257 melanoma) of over 100 µM, a TGI (SF-295 CNS) of over 100 µM and a TGI (NCI-H23 lung) of over 100 µM. It also gave a TGI (CAKI-1 renal) of over 100 µM, a TGI (K-562 leukemia) of over 100 µM and a TGI (SN12C renal) of over 100 µM. For the same compound, the TGI (PC-3 prostate) was over 100 µM, the TGI (MDA-N) was over 100 µM and the TGI (OVCAR-3 ovarian) was over 100 µM. It also gave a TGI (HCT-116 colon) of over 100 µM, a TGI (EKVX NSCLC) of over 100 µM and a TGI (MCF7 breast) of over 100 µM. For the same compound, the TGI (HOP-92 NSCLC) was over 100 µM, the TGI (SK-MEL-2 melanoma) was over 100 µM and the TGI (A498 renal) was over 100 µM. For the same compound, the TGI (HOP-62 NSCLC) was over 100 µM, the TGI (OVCAR-5 ovarian) was over 100 µM and the TGI (SW-620 colon) was over 100 µM. For the same compound, the TGI (MDA-MB-435) was over 100 µM, the TGI (RXF 393 renal) was over 100 µM and the TGI (786-0 renal) was over 100 µM. For the same compound, the TGI (M14 melanoma) was over 100 µM, the TGI (COLO 205 colon) was over 100 µM and the TGI (SK-OV-3 ovarian) was over 100 µM. The TGI (SNB-19 CNS) was over 100 µM, the TGI (IGROV1 ovarian) was over 100 µM and the TGI (HT29 colon) was over 100 µM. The TGI (MALME-3M melanoma) was over 100 µM, the TGI (NCI-H522 lung) was over 100 µM and the TGI (UACC-62 melanoma) was over 100 µM. The TGI (KM12 colon) was over 100 µM, the TGI (SF-268 CNS) was over 100 µM and the TGI (SK-MEL-5 melanoma) was over 100 µM. The TGI (ACHN renal) was over 100 µM, the TGI (MDA-MB-231 breast) was over 100 µM and the TGI (MOLT-4 leukemia) was over 100 µM. For the same compound, the TGI (A549 NSCLC) was over 100 µM, the TGI (TK-10 renal) was over 100 µM and the TGI (BT-549 breast) was over 100 µM. It also gave a TGI (HL-60(TB) leukemia) of over 100 µM, a TGI (OVCAR-8 ovarian) of over 100 µM and a TGI (U251 CNS) of over 100 µM. For the same compound, the TGI (NCI/ADR-RES ovarian) was over 100 µM, the TGI (SK-MEL-28 melanoma) was over 100 µM and the TGI (NCI-H460 lung) was over 100 µM. For the same compound, the TGI (HS 578T breast) was over 100 µM, the TGI (UO-31 renal) was over 100 µM and the TGI (CCRF-CEM leukemia) was over 100 µM. The TGI (NCI-H226 lung) was over 100 µM, the TGI (OVCAR-4 ovarian) was over 100 µM and the TGI (T-47D breast) was over 100 µM. It also gave a TGI (HCT-15 colon) of over 100 µM and a TGI (LOX IMVI melanoma) of over 100 µM.

`COc1cc(/C=N/NC(=O)c2c(Cl)c(Cl)c(Cl)c(Cl)c2-c2nc3ccccc3[nH]2)ccc1O` was tested, and the TGI (UACC-257 melanoma) was 87.6 µM, the TGI (SF-295 CNS) was over 100 µM and the TGI (NCI-H23 lung) was 55.3 µM. For the same compound, the TGI (CAKI-1 renal) was 49.8 µM, the TGI (K-562 leukemia) was over 100 µM and the TGI (SN12C renal) was over 100 µM. The TGI (PC-3 prostate) was over 100 µM, the TGI (MDA-N) was 75.7 µM and the TGI (OVCAR-3 ovarian) was over 100 µM. The TGI (HCT-116 colon) was 43.6 µM, the TGI (EKVX NSCLC) was 82.6 µM and the TGI (MCF7 breast) was 44.7 µM. It also gave a TGI (HOP-92 NSCLC) of 33.4 µM, a TGI (SK-MEL-2 melanoma) of 41.1 µM and a TGI (A498 renal) of 61.4 µM. The TGI (HOP-62 NSCLC) was 75.8 µM, the TGI (OVCAR-5 ovarian) was 86.7 µM and the TGI (SW-620 colon) was over 100 µM. It also gave a TGI (MDA-MB-435) of 91.7 µM, a TGI (RXF 393 renal) of 46.4 µM and a TGI (786-0 renal) of over 100 µM. The TGI (SNB-75 CNS) was 60.5 µM, the TGI (M14 melanoma) was 90.9 µM and the TGI (COLO 205 colon) was 73 µM. The TGI (SK-OV-3 ovarian) was over 100 µM, the TGI (SNB-19 CNS) was over 100 µM and the TGI (IGROV1 ovarian) was over 100 µM. For the same compound, the TGI (HT29 colon) was 62.9 µM, the TGI (MALME-3M melanoma) was 52.9 µM and the TGI (NCI-H522 lung) was over 100 µM. It also gave a TGI (DU-145 prostate) of 56.5 µM, a TGI (UACC-62 melanoma) of 32.4 µM and a TGI (KM12 colon) of 74.9 µM. It also gave a TGI (SF-268 CNS) of over 100 µM, a TGI (SK-MEL-5 melanoma) of 34.2 µM and a TGI (ACHN renal) of 62.5 µM. The TGI (MOLT-4 leukemia) was over 100 µM, the TGI (SF-539 CNS) was over 100 µM and the TGI (A549 NSCLC) was over 100 µM. It also gave a TGI (BT-549 breast) of 67.2 µM, a TGI (HL-60(TB) leukemia) of 53.2 µM and a TGI (OVCAR-8 ovarian) of over 100 µM. The TGI (NCI/ADR-RES ovarian) was over 100 µM, the TGI (SK-MEL-28 melanoma) was over 100 µM and the TGI (NCI-H460 lung) was 57 µM. It also gave a TGI (HS 578T breast) of over 100 µM, a TGI (UO-31 renal) of over 100 µM and a TGI (CCRF-CEM leukemia) of over 100 µM. It also gave a TGI (NCI-H226 lung) of 87.6 µM, a TGI (T-47D breast) of 15.9 µM and a TGI (HCT-15 colon) of 79.2 µM. For the same compound, the TGI (HCC-2998 colon) was 33.5 µM and the TGI (LOX IMVI melanoma) was 61.1 µM.
